Data set [1] has as its system mosquito Culex pipiens pallens. The conditions noted are these: Park et al., J. Am. Mosquito Control Assoc., 2005; cited from earlier work.
Data set [2] can be described thus: Description: alcohol release from model compounds (III), (IV) and compound (V) in buffer, water and skin washings. Format: physicochemical.
A short description of data set [3]: Example 31: stability of geranyl-O-β-D-3′-ketoglucopyranoside in D2O at 50° C. The settings on record: 5 mg in D2O (1 mL), 2 weeks. It counts as physicochemical. As for the experimental part:
Geranyl-O-β-D-3′-ketoglucopyranoside, obtained according to Example 4 (5 mg) was added to D2O (1 mL) and heated at 50° C.

Data set [4] can be described thus: Example 32: release of geraniol from geranyl-O-β-D-3′-ketoglucopyranoside (PEG200, L-arginine, calcium chloride solution) on a paper kitchen towel disc, room temperature. It counts as physicochemical. Here is the method:
Geranyl-O-β-D-3′-ketoglucopyranoside, obtained according to Example 4, (50 mg) was dissolved in polyethylene glycol 200 (PEG200) (0.1 mL) with gentle heating. 0.1 mL of a solution of L-arginine (10 mg) dissolved in 0.1 mL of a 3:7 w/v solution of anhydrous calcium chloride in water was then added and thoroughly mixed. The resultant solution was spread over a 5 cm diameter paper kitchen towel disc and left to stand at room temperature. The smell of released geraniol evolved from the disc was then assessed with time as strong, medium or weak and reported in Table XIX:
After 19 h, the reaction mixture was dissolved in D4-MeOH and analysed by 1H NMR.

A short description of data set [5]: Example 17: release of geraniol from a 40 mg/mL suspension of geranyl-O-β-D-3′-ketoglucopyranoside, 0.1 M phosphate buffer pH 7, 10% DMSO, 37° C. It counts as physicochemical. The conditions noted are these: after 3 d. As for the experimental part:
In this example the rate of release of geraniol from a 40 mg/mL suspension of (2R,3S,6R)-2-(((E)-3,7-dimethylocta-2,6-dien-1-yl)oxy)-3,5-dihydroxy-6-(hydroxymethyl)tetrahydro-4H-pyran-4-one (geranyl-O-β-D-3′-ketoglucopyranoside) in 0.1 M deuterated phosphate buffer solution, pH 7, containing 10% DMSO at 37° C. was determined.
In a stoppered glass vial, geranyl-O-β-D-3′-ketoglucopyranoside (20 mg) was dissolved in D6-DMSO (0.05 mL) then diluted with 0.1 M sodium phosphate buffer, pH 7.0 (0.45 mL) and the resultant suspension incubated by shaking at 37° C.

A short description of data set [6]: Example 16: release of geraniol from geranyl-O-β-D-3′-ketoglucopyranoside, 0.1 M deuterated phosphate buffer, 10% D6-DMSO, 37° C., presence and absence of fresh skin wash. It counts as physicochemical. Here is the method: In this example the rate of release of geraniol from (2R,3S,6R)-2-(((E)-3,7-dimethylocta-2,6-dien-1-yl)oxy)-3,5-dihydroxy-6-(hydroxymethyl)tetrahydro-4H-pyran-4-one (geranyl-O-β-D-3′-ketoglucopyranoside) in 0.1 M deuterated phosphate buffer solutions of differing pH containing 10% D6-DMSO or in D2O containing 10% D6-DMSO at 37° C. in the presence and absence of fresh skin wash was determined.
(§1) 1 M Stock solutions of sodium dihydrogen phosphate and disodium hydrogen phosphate were prepared in deuterated water (D2O).
A stock solution of 25 mg of geranyl-O-β-D-3′-ketoglucopyranoside in 0.5 mL of D6-DMSO were prepared.
In a typical experiment, a stock solution of fresh skin wash suspension was prepared by swabbing a 25 cm^2 areas of cheek skin of a human volunteer by robustly rubbing the area with a cotton wool gauze (5×5 cm^2) soaked in D2O (12.5 mL) for 1 minute and then resuspending the gauze in the D2O solution, rapidly shaking and removing the gauze after squeezing out as much liquid as possible with a spatula. 1 M Stock solutions phosphate buffer, pH 5.7 and 7.0 were prepared by appropriately mixing 1 M stock phosphate salts solutions to the correct pH as determined using a calibrated pH meter.
(§2) Half of each buffer stock solution was diluted ten times with D2O and the other with the above skin washing stock solution to give a 0.1 M phosphate buffer in D2O with a final pH of 5.7, 0.1 M phosphate buffer in D2O with a final pH of 7.0, a 0.1 M phosphate buffer in skin wash solution with a final pH of 5.7 and a 0.1 M phosphate buffer in skin wash solution with a final pH of 7.0.
To three parallel reaction vials, where indicated in the reaction table below, was added 0.45 mL of low or high pH 0.1 M phosphate buffer in D2O or 0.45 mL of low or high pH 0.1M phosphate buffer in skin wash solution followed by 0.05 mL of the glycoside substrate solutions in D6-DMSO and the mixtures incubated by shaking at 37° C. After times indicated in table below, the mixtures where analysed by ^1H-NMR with 128 scans using a 400 MHz instrument.

Data set [7] relates to Aedes albopictus mosquitoes. The data set can be described thus: Example 33: in vitro mosquito testing, landings on treated Hemotek membranes. The conditions noted are these: for Landing (total number of landings over the 20-minute exposure): 50 mg on membrane, 15 females, duplicate membranes. It counts as in vivo. Here is the method: Aedes albopictus mosquitoes were reared and maintained at 26±2° C. temperature, ≥80%±10 relative humidity, with a 12 h:12 h (light:dark) photoperiod.
Populations of adult mosquitoes were allowed to feed on sugar solution (10%) but were not blood fed before tests.
Geranyl-O-β-D-3′-ketoglucopyranoside, obtained according to Example 4, (100 mg) was dissolved in polyethylene glycol 200 (PEG200) (0.2 mL) with gentle heating to give Solution 1. Then 200 mg of L-arginine was dissolved in 2 mL of a 3:7 w/v solution of anhydrous calcium chloride in water to give Solution 2. Solution 2 (0.2 mL) was added to all of Solution 1 to give Solution 3. The contents of Solution 3 were thoroughly mixed and half of the resultant solution was applied to parallel 5 cm diameter artificial Hemotek membranes covered with paper kitchen towel of equal diameter. Parallel duplicate membranes, covered with paper kitchen towel, were also each treated with 0.2 mL of a 1:1 v/v solution of PEG200/Solution 2 and a further two parallel membranes were left untreated.
The membranes were heated over a reservoir of sheeps' blood at 37° C. using a Hemotek system and periodically exposed to 5- to 7-day old active host-seeking female mosquitoes, selected and collected using an aspirator and organized into batches (15 females) in plastic test containers. The heating was switched off between exposures to maintain membrane integrity and switched on 5 minutes prior to each exposure. Each membrane was exposed to a fresh container of female mosquitos for 20 minutes immediately after membrane preparation and again after 2 h, 4 h, 6 h and 8 h. At each time point, the number of mosquitos landing on each membrane immediately after exposure and 5, 10 and 20 minutes after exposure was counted and the total number of landings over each 20-minute exposure summed and tabulated.

The nature of data set [8]: Example 30: competitive release of alcohol from substrate stock solutions A-D (methyl-O-α-D-3′-ketoglucopyranoside, methyl-O-α-D-glucopyranoside, phenyl-O-β-D-3′-ketoglucopyranoside, phenyl-O-β-D-glucopyranoside, each with 4-nitrophenyl-O-β-D-glucopyranoside), 0.1 M phosphate buffer, 37° C., presence and absence of fresh skin wash. The conditions noted are these: pH 5.7; presence and absence of skin washing; 37° C. It counts as physicochemical.
From the text: In this example, phenyl-O-β-D-3′-ketoglucopyranoside, methyl-O-α-D-3′-ketoglucopyranoside, phenyl-O-β-D-glucopyranoside, methyl-O-α-D-glucopyranoside and 4-nitrophenyl-O-β-D-glucopyranoside were used as model compounds to determine the rate of release of their respective alcohol rests under different conditions.
The competitive rate of release of methanol or phenol and 4-nitrophenol from a 1:1 stoichiometric mixture of (2R,5S,6S)-3,5-dihydroxy-2-(hydroxymethyl)-6-phenoxytetrahydro-4H-pyran-4-one (phenyl-O-β-D-3′-ketoglucopyranoside) or (2R,3R,5S,6S)-3,5-dihydroxy-2-(hydroxymethyl)-6-methoxytetrahydro-4H-pyran-4-one (methyl-O-α-D-3′ketoglucopyranoside) and their respective 0-glucopyranosides against (2R,3S,4S,5R,6S)-2-(hydroxymethyl)-6-(4-nitrophenoxy)tetrahydro-2H-pyran-3,4,5-triol (4-nitrophenyl-O-β-D-glucopyranoside) in 0.1 M deuterated phosphate buffer solutions at pH 5.7 and 7.0 containing 10% D6-DMSO at room temperature in the presence and absence of fresh skin washing solution was determined.
as §1
4-Nitrophenyl-O-β-D-glucopyranoside (50 mg) was dissolved in D6-DMSO (1 mL) and 0.2 mL of the resultant solution added to each of 10 mg of methyl-O-α-D-3′-ketoglucopyranoside, methyl-O-α-D-glucopyranoside, phenyl-O-β-D-3′-ketoglucopyranoside and phenyl-O-β-D-glucopyranoside to give substrate stock solutions A, B, C and D respectively.
In a typical experiment, a stock solution of fresh skin wash suspension was prepared by swabbing a 25 cm^2 area of cheek skin of a human volunteer by robustly rubbing the area with a cotton wool gauze (5×5 cm^2) soaked in D2O (12.5 mL) for 1 minute and then resuspending the gauze in the D2O solution, rapidly shaking and removing the gauze after squeezing out as much liquid as possible with a spatula.
1 M Stock solutions of phosphate buffer, pH 5.7 and 7.0 were prepared by appropriately mixing 1 M stock phosphate salts solutions to the correct pH as determined using a calibrated pH meter.
as §2
To sixteen parallel reaction vials, was added 0.45 mL of low or high pH 0.1M phosphate buffer in D2O or 0.45 mL of low or high pH 0.1M phosphate buffer in skin wash solution followed by 0.05 mL of one of the glycoside substrate solutions in D6-DMSO and the mixtures incubated by shaking at 37° C. After times indicated in the table below, the mixtures where analysed by ^1H-NMR with 128 scans using a 400 MHz instrument and the colour observed visually, with the results shown in Table XVII: […]

Data set [9] is described as follows: Example 21: release of methanol from substrate A (methyl-O-α-D-3′-ketoglucopyranoside) vs substrate B (methyl-O-α-D-glucopyranoside), 0.1 M phosphate buffer or water, room temperature then 37° C. Format: physicochemical. The settings on record: 37° C.; pH range tested and water. Here is the method: In this example, methyl-O-α-D-3′-ketoglucopyranoside and methyl-O-α-D-glucopyranoside were used as model compounds to determine the rate of release of an aliphatic alcohol (methanol) under different conditions.
1 M Stock solutions of sodium dihydrogen phosphate and disodium hydrogen phosphate were prepared in deuterated water (D2O). Stock solutions of 15 mg of methyl-O-α-D-3′-ketoglucopyranoside (substrate A) and methyl-O-α-D-glucopyranoside (substrate B) were each prepared by dissolving in 0.3 mL of D6-DMSO.
Solutions of pH 4.5, 5.8 and 7.4 were prepared by dilution of the appropriate individual or mixture of stock phosphate salt solutions to 0.1 M using a calibrated pH meter.
To eight parallel reaction vials was added 0.05 mL of one of the glycoside substrate solutions in D6-DMSO, 0.5 mL of the appropriate deuterated buffer solution or 0.5 mL of water were indicated in the table below and the mixtures analysed by ^1H-NMR with 128 scans using a 400 MHz instrument to give an initial time reading.
The mixtures were then analysed in the same way after allowing to stand at room temperature for a further 22 h.
The mixtures were then incubated by shaking at 37° C. for a further 44 h and analysed in the same way.

Here are results for three compounds from patent US12509482B2, “3′-ketoglycoside compound for the slow release of a volatile alcohol” (GLYCOSCIENCE, S.L., priority 2020, dated 2025).

Values joined by “and” are separate entries in the source; they are usually repeats but may differ in a detail not shown here. Identical values can stand only once.

On to `Cc1ccc(C(C)C)cc1O` [Carvacrol, 2-methyl-5-propan-2-ylphenol], for which the “repellency compared with DEET (in words)” value in data set [1] is “outperformed N,N-diethyl-m-methylbenzamide (DEET)”.

Consider `CC(C)=CCC/C(C)=C/CO[C@@H]1O[C@H](CO)[C@@H](O)C(=O)[C@H]1O` [geranyl-O-β-D-3′-ketoglucopyranoside, (2R,3S,6R)-2-(((E)-3,7-dimethylocta-2,6-dien-1-yl)oxy)-3,5-dihydroxy-6-(hydroxymethyl)tetrahydro-4H-pyran-4-one], for which, in data set [2], the “degradation rate compared with compound (III) (in words)” value was “degraded significantly faster than compound (III)”. Also, the “aroma of geraniol on opening the stoppered reaction vessel” value in [2] (20 mg/mL mixture, after 3 d) is recorded as “a very pungent aroma of geraniol was immediately noticeable”. Also, the degraded entry in data set [2] (after 3 days) is given as “approximately 50%”. The “stability in D2O by 1H NMR (in words)” value in [3] is “stable”. For the same compound, the “Geraniol strength by smell” value in data set [4] (0 h), in data set [4] (0.3 h), in [4] (2 h), in data set [4] (3 h), in data set [4] (4 h) and in data set [4] (6 h) was “strong” each time. Further, the “Geraniol strength by smell” value in [4] (11 h) and in data set [4] (19 h) was “medium” throughout. Besides, in [5], the “extent of conversion to geraniol by 1H-NMR” value is given as “approximately 50%”. Further, in [5], the smell of geraniol result is given as “a strong smell of geraniol was observed”. In addition, the “% Conversion by 1H-NMR” value in data set [6] (0.1M buffer in D2O, final pH 5.7, 19 h) was determined as 3%; in data set [6] (0.1M buffer in D2O, final pH 5.7, 41 h), 6%; in data set [6] (0.1M buffer in D2O, final pH 5.7, 72 h), 10%; in data set [6] (0.1M buffer in D2O, final pH 7.0, 19 h) it was 9%; in data set [6] (0.1M buffer in D2O, final pH 7.0, 41 h), 28%; in data set [6] (0.1M buffer in D2O, final pH 7.0, 72 h), 51%. Also, the “% Conversion by 1H-NMR” value in [6] (0.1M buffer in skin wash solution, final pH 7.0, 19 h) came to 10%; in [6] (0.1M buffer in skin wash solution, final pH 7.0, 41 h), 31%; in data set [6] (0.1M buffer in skin wash solution, final pH 7.0, 72 h) it was 48%. Further, the “pH dependence of geraniol release (in words)” value in data set [6] (37° C., presence or absence of skin wash) is given as “only slowly degraded at pH 5.8, but releases geraniol at a significantly higher rate at pH 7.4 that is unchanged in the presence or absence of skin wash”. Besides, the “Landing (total number of landings over the 20-minute exposure)” value in data set [7] (6 h, listed as GS0010) was 4 and 3; in data set [7] (8 h), 0. In addition, the “repellent effect (conclusion in words)” value in data set [7] (in vivo) is recorded as “a repellent effect is provided”. Moreover, the “landings compared with diluent treated or untreated membranes (in words)” value in [7] (over 8 h) is “significantly fewer landings than observed with diluent treated or untreated membranes”.

Regarding `CO[C@H]1O[C@H](CO)[C@@H](O)C(=O)[C@H]1O` [methyl-O-α-D-3′-ketoglucopyranoside, (2R,3R,5S,6S)-3,5-dihydroxy-2-(hydroxymethyl)-6-methoxytetrahydro-4H-pyran-4-one], in data set [8], the “alcohol release (in words)” value is on record as “no reaction is observed”. Besides, the “methanol release (in words)” value in data set [2] (0.1M sodium phosphate buffer in D2O, pH 7.0, 37° C., after 36 h) is recorded as “slowly liberates methanol”. The “stability (in words)” value in data set [2] (deionised water, acidic pH) is “remained stable in deionised water and relatively stable at acidic pH”. For the same compound, in data set [2] (same temperature and pH (37° C., pH 7.0)), the “methanol release in the presence of skin washings (in words)” value is given as “significantly more methanol than had been observed in buffer alone”. Moreover, the “stability / methanol release (in words)” value in [9] was “stable at pH 4.5 and 5.8, but very slowly generates methanol at pH 7.4”.
